In series [1] the test system is viral protein glycosylation. The note with it: cited from earlier work.
Series [2] relates to HIV glycoproteins. The note with it: cited from earlier work; for formation of syncytia: HIV.
The test system of series [3] is HSV. To be noted: cited from earlier work.
Series [4] concerns Herpes infections. The note with it: in man; cited from earlier work.
For series [5] the following is noted: at high dosage; cited from earlier work.
For series [6], the system named is HSV1 and HSV2. To be noted: cited from earlier work.
For series [7], the system named is HSV1 strain 17i. As to the kind of experiment: plaque-reduction assay, HSV1 strain 17i in MRC5 cells. It is filed as cell-based, HSV1 strain 17i; human embryonic fibroblast cells (MRC5). To be noted: Human alphaherpesvirus 1, 72 h, 3 days incubation, read-out: ED50 HSVI. On the procedure:
(§1) Antiviral activity of the compounds of formula (1) can assessed by the plaque-reduction assay as previously described by Tyms et al., J. Antimicrobial Chemotherapy, 8, 65-72 (1981). Briefly, human embryonic fibroblast cells (MRC5) were cultured in 24-well tissue culture trays in the presence of Eagles' minimum essential medium (MEM) supplemented with 10% fetal calf serum. When cell monolayers were semi-confluent, they were inoculated with 30-50 plaque-forming units of HSV2 strain HG52 or HSV1 strain 17[…]. General Virology, 55, 315-331 (1981). […] After 3 days incubation, cells were fixed in 10% formalin in saline and subsequently stained with 0.3% methylene blue. Dose-responselines were plotted from the mean number of plaques present versus the log of the concentration of the compound. The 50% effective dose (ED50) was computed after linear regression analysis.
For orientation: In a plaque reduction assay, fewer plaques than in the control indicate reduced infectivity or spread.

The subject of series [8] is HSV2 strain HG52. As to the kind of experiment: plaque-reduction assay, HSV2 strain HG52 in MRC5 cells. It is filed as cell-based, HSV2 strain HG52; human embryonic fibroblast cells (MRC5). To be noted: Human alphaherpesvirus 2, 72 h, 3 days incubation, read-out: ED50 HSVII. On the procedure: as §1

For 2-deoxy-2-fluoroglucose, the “inhibition of viral protein glycosylation” value in series [1] is recorded as “inhibit viral protein glycosylation by a different mechanism”.

Regarding `O=CC[C@@H](O)[C@H](O)[C@H](O)CO` [2-deoxy-D-glucose], in series [2], the formation of syncytia entry was “block the formation of syncytia” and the “expression of HIV glycoproteins” value is “inhibit expression of HIV glycoproteins”. In series [3], the “activity against HSV” value was “active against HSV”. The “efficacy in the treatment of Herpes infections” value in series [4] was “has shown efficacy in the treatment of Herpes infections in man”.

With `O=CC[C@@H](O)[C@H](O)[C@H](O)CO` [2-deoxyglucose], in series [1], the “inhibition of viral protein glycosylation” value is “inhibit viral protein glycosylation by a different mechanism”.

As for `Nc1nc2c(ncn2COCCO)c(=O)[nH]1` [Acyclovir], the solubility result in series [5] is “Poor solubility at high dosage”. Further, the antiviral effect result in series [6] is given as “potent antiviral effect”.

With `CCCC(=O)O[C@H]1CN2CC[C@H](O)[C@@H]2[C@@H](O)[C@@H]1O` [MDL 28,574, [1S-(1α,6β,7α,8β,8aβ)]-octahydro-1,6,7,8-indolizinetetrol 6-butanoate], the results for the EC50 in series [7] and in series [8] were no more than 75 µg/mL and no more than 22 µg/mL, respectively.

Consider `Cc1ccc(C(=O)O[C@H]2CN3CC[C@H](O)[C@@H]3[C@@H](O)[C@@H]2O)cc1` [MDL 29,204], for which the EC50 in series [8] is no more than 20 µg/mL.

Regarding `CCC=CCC(=O)O[C@H]1CN2CC[C@H](O)[C@@H]2[C@@H](O)[C@@H]1O` [MDL 29,513, [1S-(1α,6β,7α,8β,8aβ)]-octahydro-1,6,7,8-indolizinetetrol 6-(3-hexenoate)], the EC50 in series [7] and in series [8] was no more than 5 µg/mL throughout.

As for `CCCCCCCC(=O)O[C@H]1CN2CC[C@H](O)[C@@H]2[C@@H](O)[C@@H]1O` [MDL 29,797, [1S-(1α,6β,7α,8β,8aβ)]-octahydro-1,6,7,8-indolizinetetrol 6-octanoate], the EC50 in series [7] was no more than 10 µg/mL; in series [8], no more than 5 µg/mL.

On to `O=C(O[C@H]1CN2CC[C@H](O)[C@@H]2[C@@H](O)[C@@H]1O)c1ccccc1` [MDL 43,305, [1S-(1α,6β,7α,8β,8aβ)]-octahydro-1,6,7,8-indolizinetetrol 6-benzoate], for which the EC50 in series [8] was no more than 20 µg/mL.

Consider `CCC(O)[C@H](N)C(=O)O` (stereo partly drawn) [β-hydroxy-norvaline], for which, in series [2], the formation of syncytia result was “block the formation of syncytia” and the “expression of HIV glycoproteins” value was “inhibit expression of HIV glycoproteins”.

The record behind these values is patent publication US5385911A, “Anti-herpes castanospermine esters” (priority 1990, dated 1995).
